For four compounds, GI50 and TGI results are on record in PubChem BioAssay (NCI).

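All cell lines were grown in 96-well plates and treated with compound for 48 hours. Abbreviation: GI50, concentration required for 50% inhibition of growth. Definition used: TGI = concentration required for complete inhibition of growth.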

Some test systems named below: UACC-62 melanoma; SK-MEL-2 melanoma; SNB-75 CNS; SF-539 CNS; COLO 205 colon; UO-31 renal; NCI-H226 lung; SF-268 CNS; ACHN renal; MDA-MB-435.
Holding throughout (test): growth of human tumour cells (NCI), 48 h

Take `C#Cc1cccc(Nc2nc3ccc([N+](=O)[O-])cc3nc2Nc2cccc(C#C)c2)c1`: the GI50 is 302 nM with UACC-62 melanoma; 260 nM in the experiment on SK-MEL-2 melanoma; 175 nM in the experiment on SNB-75 CNS; 247 nM in the experiment with SF-539 CNS; 172 nM with COLO 205 colon; 321 nM in the experiment on UO-31 renal. Further, the GI50 in the experiment with NCI-H226 lung is 251 nM; with SF-268 CNS, 313 nM; with ACHN renal it was 293 nM; in the experiment on MDA-MB-435, 265 nM. The TGI with UACC-62 melanoma amounted to 1200 nM; in the experiment with SK-MEL-2 melanoma it was 742 nM; with SNB-75 CNS it was 653 nM; in the experiment on SF-539 CNS, 738 nM; in the experiment on COLO 205 colon it was 345 nM; in the experiment with UO-31 renal, 1140 nM. Further, the TGI with NCI-H226 lung is 1200 nM; in the experiment on SF-268 CNS it was 1300 nM; in the experiment with ACHN renal, 1160 nM; with MDA-MB-435 it was 838 nM.
For `CCCSC1=NC2C(N(CC)C(=O)N2CC)N1/N=C/C=C/c1ccccc1[N+](=O)[O-]` (stereo unspecified), the GI50 in the experiment with UACC-62 melanoma was 2810 nM; in the experiment with SK-MEL-2 melanoma it was 7260 nM; in the experiment on SNB-75 CNS, 2260 nM; in the experiment with SF-539 CNS it was 2130 nM; with COLO 205 colon it was 3130 nM; with UO-31 renal it was 3860 nM. The GI50 with NCI-H226 lung is 3320 nM; in the experiment on SF-268 CNS, 4690 nM; with ACHN renal, 3980 nM; with MDA-MB-435, 2020 nM. Further, the TGI with UACC-62 melanoma is greater than 100000 nM; with SK-MEL-2 melanoma it was greater than 100000 nM; in the experiment on SNB-75 CNS, 54700 nM; in the experiment with SF-539 CNS, 5800 nM; in the experiment with COLO 205 colon it was 56500 nM; in the experiment on UO-31 renal, greater than 100000 nM. The TGI with NCI-H226 lung was greater than 100000 nM; in the experiment on SF-268 CNS it was greater than 100000 nM; in the experiment with ACHN renal it was greater than 100000 nM; with MDA-MB-435, 7240 nM.
In the case of `CCCCCCCC(=O)SCC/C=C/[C@@H]1CC(=O)NCc2nc(co2)C2=N[C@@](C)(CS2)C(=O)N[C@@H](C(C)C)C(=O)O1`, the GI50 in the experiment on UACC-62 melanoma is 9.17 nM; with SK-MEL-2 melanoma, 13.2 nM; in the experiment with SNB-75 CNS, 10.8 nM; in the experiment on SF-539 CNS, 18.2 nM; in the experiment on COLO 205 colon, 34.2 nM; in the experiment with UO-31 renal, 43 nM. For the same compound, the GI50 with NCI-H226 lung is 86.1 nM; in the experiment on SF-268 CNS, 42.2 nM; in the experiment with ACHN renal, 47.5 nM; with MDA-MB-435, 14.8 nM. For the same compound, the TGI was 53.6 nM with UACC-62 melanoma; 331 nM in the experiment with SK-MEL-2 melanoma; greater than 50000 nM with SNB-75 CNS; greater than 50000 nM with SF-539 CNS; 141 nM in the experiment with COLO 205 colon; 487 nM in the experiment on UO-31 renal. The TGI in the experiment on NCI-H226 lung was 2370 nM; in the experiment with SF-268 CNS, 8340 nM; in the experiment on ACHN renal, 320 nM; in the experiment with MDA-MB-435 it was 1630 nM.
As to `COC1=Nc2ccccc2S(=O)(=O)C=C1`, the TGI in the experiment with UACC-62 melanoma came out at 37400 nM; in the experiment on SK-MEL-2 melanoma it was 35800 nM; in the experiment with SNB-75 CNS it was 17500 nM; with SF-539 CNS it was 33300 nM; in the experiment on COLO 205 colon it was 4010 nM; with UO-31 renal, 12500 nM. The TGI was greater than 100000 nM with NCI-H226 lung, 48600 nM in the experiment on SF-268 CNS, 8830 nM in the experiment with ACHN renal and 24800 nM in the experiment on MDA-MB-435. Further, the GI50 in the experiment with COLO 205 colon is 695 nM.
